Assay results from US5439915A, “Pyrido[3,4-B]indole carboxamide derivatives as serotonergic agents” (American Home Products Corporation, priority 1994, dated 1995).

Target: T1, 5-HT1A serotonin receptor (Rattus norvegicus, UniProt P19327)
T1 construct: following the procedure of Hall et al., J. Neurochem; 44 1685 (1985); from tissue
T1 sequence (P19327 1-422): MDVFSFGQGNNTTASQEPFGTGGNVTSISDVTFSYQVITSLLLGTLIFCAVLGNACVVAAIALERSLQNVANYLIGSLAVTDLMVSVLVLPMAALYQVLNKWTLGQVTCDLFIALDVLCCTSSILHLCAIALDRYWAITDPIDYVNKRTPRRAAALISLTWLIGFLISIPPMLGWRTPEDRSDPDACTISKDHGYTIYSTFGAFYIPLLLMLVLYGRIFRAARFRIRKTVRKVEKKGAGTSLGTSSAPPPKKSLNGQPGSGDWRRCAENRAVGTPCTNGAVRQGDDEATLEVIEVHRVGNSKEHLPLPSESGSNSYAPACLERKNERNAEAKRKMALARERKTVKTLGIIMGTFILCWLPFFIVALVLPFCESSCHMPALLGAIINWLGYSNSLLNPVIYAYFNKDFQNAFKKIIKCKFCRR
Test: displacement of [^3 H] 8-OHDPAT (dipropylaminotetralin) from the 5-HT1A serotonin receptor (Hall et al.)
Conditions: read-out: 5-HT1A Binding (IC50)
Experimental: High affinity for the serotonin 5-HT1A receptor for the compounds of this invention was established by testing them in accordance with the standard pharmacological test procedure in which the compound's ability to displace [^3 H] 8-OHDPAT (dipropylaminotetralin) from the 5-HT1A serotonin receptor was determined following the procedure of Hall et al., J. Neurochem. 44 1685 (1985).

| SMILES | IC50 |
| --- | --- |
| C[C@H](CN1CCc2c([nH]c3ccccc23)C1)N(C(=O)C1CCCCC1)c1ccccn1 [Example 1] | 34.9 nM |
| C[C@H](CN1CCc2c(n(C)c3ccccc23)C1)N(C(=O)C1CCCCC1)c1ccccn1 [Example 3] | 78.1 nM |
| C[C@H](CN1CCc2c([nH]c3ccccc23)C1)N(C(=O)C12CC3CC(CC(C3)C1)C2)c1ccccn1 [Example 2] | 32.5 nM |
